Source: publication PMC3523126 (Journal of the American Chemical Society, 2012)

How the values were obtained:
Calpain-1 [1] = target: T1, Calpain-1 (Homo sapiens, UniProt P07384); settings: pan-papain family cysteine protease ABP; cited from earlier work
T1 sequence (P07384 1-714): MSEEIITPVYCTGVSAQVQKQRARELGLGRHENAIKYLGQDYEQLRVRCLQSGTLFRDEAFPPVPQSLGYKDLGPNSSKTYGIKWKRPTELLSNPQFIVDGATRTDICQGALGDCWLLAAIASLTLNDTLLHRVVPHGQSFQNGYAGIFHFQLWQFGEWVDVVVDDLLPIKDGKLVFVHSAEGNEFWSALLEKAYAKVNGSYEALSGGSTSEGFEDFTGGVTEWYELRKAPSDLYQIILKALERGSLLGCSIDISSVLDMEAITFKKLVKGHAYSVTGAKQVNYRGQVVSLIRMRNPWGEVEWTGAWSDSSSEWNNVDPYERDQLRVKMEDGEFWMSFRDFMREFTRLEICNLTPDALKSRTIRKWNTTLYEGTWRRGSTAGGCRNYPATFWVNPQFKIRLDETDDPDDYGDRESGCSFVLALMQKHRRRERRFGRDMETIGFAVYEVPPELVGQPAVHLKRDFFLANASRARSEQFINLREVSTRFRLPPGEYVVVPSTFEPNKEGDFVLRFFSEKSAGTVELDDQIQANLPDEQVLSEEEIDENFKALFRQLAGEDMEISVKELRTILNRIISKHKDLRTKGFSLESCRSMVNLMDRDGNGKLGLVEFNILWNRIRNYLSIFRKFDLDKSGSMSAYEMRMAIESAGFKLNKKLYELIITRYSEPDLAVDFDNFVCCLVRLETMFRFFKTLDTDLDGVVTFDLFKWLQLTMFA
T1 sequence (P04632 1-268 partner): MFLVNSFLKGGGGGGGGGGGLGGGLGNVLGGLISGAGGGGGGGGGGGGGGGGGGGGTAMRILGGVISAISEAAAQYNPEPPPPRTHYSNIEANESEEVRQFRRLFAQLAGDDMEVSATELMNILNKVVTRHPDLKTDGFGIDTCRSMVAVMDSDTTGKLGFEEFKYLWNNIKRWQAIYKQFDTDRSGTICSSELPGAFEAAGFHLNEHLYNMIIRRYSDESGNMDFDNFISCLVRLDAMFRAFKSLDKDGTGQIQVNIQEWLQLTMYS

Cathepsin L = Cathepsin L (Homo sapiens, UniProt P07711); experiment: Protease fluorescence activity assay, cathepsin L inhibition; type: biochemical; settings: crosslinked peptide; ratio of Ki values
Sequence of Cathepsin L (P07711 114-333, species assumed): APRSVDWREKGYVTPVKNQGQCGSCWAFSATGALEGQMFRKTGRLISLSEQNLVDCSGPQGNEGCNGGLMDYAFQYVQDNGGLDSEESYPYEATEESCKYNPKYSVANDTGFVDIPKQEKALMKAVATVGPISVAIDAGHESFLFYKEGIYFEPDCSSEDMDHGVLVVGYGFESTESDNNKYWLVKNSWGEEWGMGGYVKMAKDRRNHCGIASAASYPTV

Calpain-1 [2] = target: T1, Calpain-1; experiment: Kinetic analysis of calpain-1 inhibition; type: biochemical; settings: crosslinked peptide; Michaelis-Menten and Lineweaver-Burke analysis

SMILES	Labeling of calpains (positive control) (Calpain-1 [1])	Potency against calpain over cathepsin L (Cathepsin L)	Mechanism of calpain-1 inhibition (Calpain-1 [2])
CCOC(=O)[C@H]1O[C@@H]1C(=O)N[C@@H](CC(C)C)C(=O)N[C@@H](Cc1ccc(O)cc1)C(=O)NCCCCCC(=O)N[C@@H](CCCCNC(=O)CCCC[C@@H]1SC[C@@H]2NC(=O)N[C@@H]21)C(N)=O [DCG-04]	known to label calpains		
CC[C@H](C)[C@H](NC(C)=O)C(=O)N1CCC[C@H]1C(=O)N1CCC[C@H]1C(=O)N[C@@H](CCCCN)C(=O)N[C@@H](Cc1ccc(O)cc1)C(=O)N[C@H]1CSCc2cccc(c2)CSC[C@@H](C(N)=O)NC(=O)[C@H](CC(C)C)NC(=O)[C@H](CC(C)C)NC(=O)[C@H](CCC(=O)O)NC1=O [Peptide 3c]		about four fold more potent	competitive inhibitor
